System: Balb/c female mice
Experiment: Transepidermal water loss in pups of mothers receiving SCFA in drinking water during pregnancy (TEWLmeter method)
Assay type: in vivo
Conditions: 200 mM in drinking water of pregnant mothers from day 1 of pregnancy; TEWL at day 3 after birth; vs regular drinking water; FIG. 1
Procedure: • Breeding pairs were set up with 1 Balb/c male and 2 Balb/c female mice. • From day 1 of pregnancy, female mice received 200 mM sodium acetate or sodium propionate ad libitum in drinking water. These doses correspond to 0.05-0.1 and 0.05-0.08 g/mouse/day, respectively. Control female mice received regular drinking water. • Cages were monitored from day 18-24 for litters. Regular drinking water was recommenced in the mothers as soon as pups were born. 6-7 pups per group were included in the experiment. • Transepidermal water loss was measured at day 3 after birth (baseline TEWL) by the TEWLmeter method and given in g·h^−1·m^−2.

Row | Compound | transepidermal water loss in offspring
1 | CC(=O)[O-].[Na+] [acetate, sodium acetate] | significantly decreased
2 | CCC(=O)[O-].[Na+] [propionate, sodium propionate] | significantly decreased

— patent publication US10751308B2, “Composition for preventing or reducing transepidermal water loss” (NESTEC S.A., priority 2016, dated 2020)
